Laboratory results reported in the supplement of paper PMC10307832.

These cell lines were tested with C1=CC2=NC=CN=C2C=C1/C=C/3\C(=O)NC(=O)S3 + COc1cccc2cc(-c3nc([C@H]4CC[C@H](C(=O)O)CC4)n4ncnc(N)c34)[nH]c12 [OSI-027] (partner 0.5 µM) (assay: relative viability (nuclei count vs DMSO), 5 days (fraction); higher = more cells survive). Conditions: first compound 0.02 µM.
Procedure, shortened: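 Lung cancer cell lines were pin-tool dosed in 1536-well plates on the day after seeding, with either a lone drug or a fixed anchor-drug dose plus five library-drug doses (not always all listed) in √10 steps. Nuclei were counted on 4× images after 5 days. Relative viability is the ratio of treated-well to vehicle-well nuclei counts, with each value a median of duplicate plates.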
NCI-H522 showed a relative viability of 0.706. For NCI-H1623, the relative viability was 0.411. Cell Line NCI-H727 has a relative viability of 0.624. For NCI-H1650, the relative viability was 0.688. NCI-H1993 was tested, and the relative viability was 0.494. With SW 1573 the relative viability was 0.63. Work on NCI-H838 yielded a relative viability of 0.448. Cell Line LCLC-103H has a relative viability of 0.431. With NCI-H520 the relative viability was 0.25. NCI-H2126 showed a relative viability of 0.627. EMC-BAC-2 gave a relative viability of 0.307. NCI-H2085 was tested, and the relative viability was 0.75. Work on HCC-366 yielded a relative viability of 0.727. NCI-H1666 was tested, and the relative viability was 0.873. Work on NCI-H596 yielded a relative viability of 0.749. Work on LK-2 yielded a relative viability of 0.225. NCI-H2087 showed a relative viability of 0.42. For NCI-H2342, the relative viability was 0.506. SK-MES-1 gave a relative viability of 0.658. For H3255, the relative viability was 0.519. With COR-L23 the relative viability was 0.781. Work on COR-L 105 yielded a relative viability of 0.743. LOU-NH91 gave a relative viability of 0.726. For ChaGo-K-1, the relative viability was 0.567. NCI-H2170 gave a relative viability of 0.714. NCI-H2405 showed a relative viability of 0.644. Work on HOP-62 yielded a relative viability of 0.742. For HCC-44, the relative viability was 0.775. Work on SW 900 yielded a relative viability of 0.635. LU99A was tested, and the relative viability was 0.298. BEN showed a relative viability of 0.306. NCI-H1648 gave a relative viability of 0.238. In the case of NCI-H1563, the relative viability is reported as 0.834.

Same assay, conditions: first compound 0.06325 µM
In the case of NCI-H522, the relative viability is reported as 0.763. Cell Line NCI-H1623 has a relative viability of 0.415. NCI-H727 showed a relative viability of 0.598. Cell Line NCI-H1650 has a relative viability of 0.605. Cell Line NCI-H1993 has a relative viability of 0.552. For SW 1573, the relative viability was 0.946. With NCI-H838 the relative viability was 0.437. Cell Line LCLC-103H has a relative viability of 0.493. NCI-H520 was tested, and the relative viability was 0.356. NCI-H2126 showed a relative viability of 0.629. For EMC-BAC-2, the relative viability was 0.436. Work on NCI-H2085 yielded a relative viability of 0.847. NCI-H1666 gave a relative viability of 0.825. NCI-H596 was tested, and the relative viability was 0.542. In the case of LK-2, the relative viability is reported as 0.23. In the case of NCI-H2087, the relative viability is reported as 0.523. With NCI-H2342 the relative viability was 0.682. SK-MES-1 showed a relative viability of 0.467. Work on H3255 yielded a relative viability of 0.592. Cell Line COR-L23 has a relative viability of 0.898. COR-L 105 gave a relative viability of 0.669. In the case of LOU-NH91, the relative viability is reported as 0.767. ChaGo-K-1 showed a relative viability of 0.58. With NCI-H2170 the relative viability was 0.777. For NCI-H2405, the relative viability was 0.698. Work on HOP-62 yielded a relative viability of 1.02. Work on HCC-44 yielded a relative viability of 0.445. SW 900 showed a relative viability of 0.499. In the case of LU99A, the relative viability is reported as 0.332. BEN showed a relative viability of 0.287. For NCI-H1563, the relative viability was 0.823.

Same assay, conditions: first compound 0.2 µM
NCI-H522 was tested, and the relative viability was 0.675. With NCI-H1623 the relative viability was 0.419. In the case of NCI-H727, the relative viability is reported as 0.686. For NCI-H1650, the relative viability was 0.783. For NCI-H1993, the relative viability was 0.551. Work on SW 1573 yielded a relative viability of 0.725. NCI-H838 showed a relative viability of 0.438. With LCLC-103H the relative viability was 0.489. NCI-H520 gave a relative viability of 0.249. NCI-H2126 gave a relative viability of 0.735. EMC-BAC-2 showed a relative viability of 0.416. Work on NCI-H2085 yielded a relative viability of 0.82. HCC-366 gave a relative viability of 1.06. In the case of NCI-H1666, the relative viability is reported as 0.84. For NCI-H596, the relative viability was 0.875.
